According to patent US8597901B2, “2,5-diketo-L-gluconic acid reductases and methods of use” (Danisco US Inc., priority 2000, dated 2013):
Read-outs that look alike come from different tables or passages of the source.

Legend:
[1] = test system: environmental 2,5-diketo-D-gluconic acid reductase DKGRc (pI-14, SEQ ID NO: 8) variant R238Q; assay: Kinetic parameters of purified R238Q mutant of DKGRc; type: biochemical, environmental DNA (uncultured, soil)
Text: Site specific mutants of DKGRc were constructed by overlap extension PCR. […] The oligonucleotides:
were complementary to the antisense and sense strands, respectively, and introduced the changes K232Q and R238Q, respectively. The bases that differ from the native sequence are underlined. Each oligonucleotide was paired with the appropriate adapter primer (i.e. primers for amplifying the gene for insertion into expression vectors) in PCR's to generate fragments of the DKGRc gene that incorporated one of the two changes. Primers were also synthesized that matched the native DNA sequence. When used with the appropriate adapter primer, these generated an unmodified fragment of the gene. […] The amplification of the full-length genes was driven by addition of both adapter primers.

[2] = test system: environmental 2,5-diketo-D-gluconic acid reductase (form not stated); conditions: read-out: apparent Km of stimulation by inorganic phosphate, NADH-dependent activity

O=C(O)C(=O)[C@@H](O)[C@H](O)C(=O)CO [DKG, 2,5-diketo-D-gluconic acid] was tested, and the “Km for 2,5-diketo-D-gluconic acid, increase over native” value ([1]; R238Q versus native DKGRc) was 7.7 fold and the Km ([1]; R238Q, read-out: Km for 2,5-diketo-D-gluconic acid) was 440 µM.
In the case of NC(=O)C1=CN([C@@H]2O[C@H](COP(=O)(O)OP(=O)(O)OC[C@H]3O[C@@H](n4cnc5c(N)ncnc54)[C@H](O)[C@@H]3O)[C@@H](O)[C@H]2O)C=CC1 [NADH], the “Km for NADH, effect of mutation” value ([1]; R238Q versus native DKGRc) is reported as “not affected by the mutation”, the “catalytic efficiency with NADH as cosubstrate, increase over native” value ([1]; R238Q versus native DKGRc) is reported as 7 fold and the kcat ([1]; R238Q, NADH as cosubstrate) is reported as 12 S^−1. For the same compound, the Km ([1]; R238Q, NADH as cosubstrate, read-out: Km, nadh) was 1900 µM.
NC(=O)C1=CN([C@@H]2O[C@H](COP(=O)(O)OP(=O)(O)OC[C@H]3O[C@@H](n4cnc5c(N)ncnc54)[C@H](OP(=O)(O)O)[C@@H]3O)[C@@H](O)[C@H]2O)C=CC1 [NADPH] was tested, and the “Km for NADPH, increase over native” value ([1]; R238Q versus native DKGRc) was 18 fold, the “kcat, increase over native” value ([1]; R238Q versus native DKGRc, NADPH) was 3.5 fold and the Km ([1]; read-out: Km, nadph, R238Q, NADPH as cosubstrate) was 55 µM.
Compound O=P(O)(O)O [Pi] has a Km [2] of 1300 µM.
